One data set concerns Amoeba. The experiment in a line: Control of Amoeba contamination in microalgae culture, microscope examination. Type of data set: cell-based, Amoeba sp. An excerpt: If the contaminated alga liquid is identified as alkali tolerant contamination, CO2 is aerated into the culture system of microalgae, so as to lower the pH value. At this time, the appearance of the algae cells and the harmful organisms are observed under a microscope. When the harmful organisms has been inhibited or inactivated, air is sufficiently aerated into the culture system and the pH value is adjusted back to the optimal pH suitable for microalgae growth. In an embodiment, the concentration of CO2 reaches saturation. In an alternative embodiment, the pH value can be adjusted back to the optimal pH suitable for microalgae growth with ammonia (one of the nitrogen sources used by microalgae). In an embodiment, the pH value can be adjusted back to the optimal pH suitable for microalgae growth with NaOH. In an embodiment, the used NaOH is 1M NaOH. In an embodiment, the pH is 5.6-5.7 in the alga culture system with a saturated concentration of CO2. In an alternative embodiment, if the algae are marine algae (such as in the case of Dunaliella tertiolecta), the aerated CO2 can maintain pH within the range of 6.0-6.5. After that, if the harmful organisms have been determined to be in control (for instance, most of Amoeba have become spherical), salinity is reduced by diluting with water (salinity is the ratio between the mass of the solute in seawater and the mass of seawater), followed by sufficient aeration with air, so as to adjust the pH and salinity to a condition suitable for alga growth. In an embodiment (for example, in the case that the alga is Nannochloris sp. or Dunaliella tertiolecta), CO2 can be aerated intermittently. In an embodiment, CO2 can be aerated at an interval of two hours. In an embodiment, the culture system is maintained at pH 6.0-6.5 for 2 days, followed by decreasing 1% of the salinity by adding water. In an embodiment, the culture system is maintained with saturated CO2 for about 28 hours. In an embodiment, CO2 is kept at saturation for about 27 hours in the culture system. In an embodiment, saturated CO2 is aerated continuously into the culture system for 36 hours. In an embodiment, CO2 is aerated periodically at an interval of 2 hours (pH is in the range of 5.0-8.5), for 2 days.
Microscope examination is always used as one of the bases for determining the growth status in the process of microalgae culture. As a result, all the early-stage contamination is found by microscope examination. For example, when the alga liquid without microscope examination is contaminated, it's color generally changes into e.g. brown or brown spots are observed on the wall of the reactor, etc. However the contamination has become severer once the color change is observed directly.
Salinity was reduced by 1% (e.g. from 9% to 8%) by way of dilution with water. Then air was sufficiently aerated.
(§1) Chlorella sp. […] Modified SM medium (see Table 2) was used. […] Then air was sufficiently aerated.
Chlorococcum sp. […] Modified BG11 medium (see Table 3) was used. […] CO2 was aerated continuously.
(§2) Chlorococcum sp. […] Modified BG11 medium (see Table 3) was used. […] Then air was sufficiently aerated. Eighteen hours later, Chlorococcum sp. could resume to grow.
(§3) Nannochloris sp. […] Modified BG11 medium (see Table 4) was used. […] Then CO2 was aerated periodically at an interval of 2 hours (pH ranged within 5.0-8.5).
(§4) Modified SM (see Table 2) was used. […] Then air was sufficiently aerated. Twenty-four hours later, the algae could resume to grow.
(§5) Then air was sufficiently aerated. Eighteen hours later, Chlorococcum sp. could resume to grow.
(§6) Modified SM (see Table 2) was used. […] One hour later, CO2 was aerated to saturation for 23 hour continuously (about pH 5.8). […] Then air was sufficiently aerated. Twenty-four hours later, the algae could resume to grow.

Another data set has as its system Spirulina maxima. Put plainly: Growth of cultured algae after treatment, 500 L raceway pond. The conditions noted are these: Example 15; 1M ammonia pH 10.0 1 h, saturated CO2 23 h, then air. It is filed as cell-based. As to the method:
as §4, §6

In another data set the test system is ciliate. Put plainly: Control of ciliate contamination (mixed contamination) in microalgae culture, microscope examination. It is filed as cell-based.
Excerpt: In an embodiment, the pH of the culture system is first raised by alkalis, followed by aeration of CO2 to saturation. When the harmful organisms are observed as being in control under a microscope (for example, these harmful organisms such as Oxyrrhis, Amoeba and ciliate cannot be observed under a microscope or the activity of the harmful organisms has been reduced), the pH value is then adjusted back to the optimal pH suitable for microalgae growth by sufficiently aerating air. In an embodiment, an interval of 1 hour exists between the step of raising pH of the culture system with an alkali and the step of aerating CO2 to saturation. In an embodiment, said alkali can be ammonia. In an embodiment, said alkali can be 1M NaOH. […] In an embodiment, the pH of the culture system is adjusted to 11.5-12.0, 11.0-11.8 or 8.0-11.0 with 1M NaOH or 1M ammonia. In an embodiment, the pH of the culture system is adjusted to 11.5-12.0, 11.0-11.8 or 8.0-11.0 and maintained for 1 hours, followed by aeration of CO2 to saturation for about 24 hours. In an embodiment, the pH of the culture system is adjusted to 11.5-12.0, 11.0-11.8 or 8.0-11.0 and maintained for 1 hours, followed by aeration of CO2 to saturation for about 23 hours.
as §1, §2, §4, §5, §6

In the next data set the test system is Nannochloris sp. The experiment in a line: Growth of cultured algae after treatment, 1.5 m^3 glass plate reactor. Type of data set: cell-based. The conditions noted are these: Example 9; CO2 periodically at an interval of 2 hours, 2 days. As to the method: as §3
Where [1] appears, read: Example 4, after 1M NaOH pH 11.0-11.8 1 h, CO2 to saturation (pH 5.6) 24 hours.
Where [2] appears, read: Example 7, after 1M NaOH pH 11.5-12.0 1 h, CO2 to saturation (about pH 5.6) 24 hour.
[3] abbreviates: Example 12, after 1M ammonia pH 9.0 1 h, CO2 to saturation (pH 5.6) 24 hours.
[4] abbreviates: Example 14, after 1M ammonia pH 9.0 1 h, CO2 to saturation (about pH 5.6) 24 hour.

Experimental findings from patent US8759073B2, “Method for effectively controlling harmful organisms in large-scale culture of microalgae” (ENN Science & Technology Development Co., Ltd., priority 2009, dated 2014) are described below.

Entries after “also recorded” stand apart in the source; their conditions may differ.

Regarding `O=C=O` [CO2, carbon dioxide], the “Amoeba, result of microscope examination” value in the data set with Amoeba (Example 1, Dunaliella tertiolecta culture, CO2 aerated intermittently, pH 6.0-6.5, two days) was “most Amoebae were found to become spherical”; with Amoeba (Example 1, after CO2 pH 6.0-6.5 two days, salinity reduced by 1%, air aerated, twenty-four hours later), “almost no Amoeba”; with Amoeba (Example 3, Chlorella sp. culture, CO2 aerated continuously, saturated, pH 5.6-5.7, one hour) it was “most Amoebae were found to become spherical and lose activity”; in the data set with Amoeba (Example 3, saturated CO2, twenty-seven hours after the first hour (about 28 hours)), “almost no intact Amoeba was observed; also recorded: almost no Amoeba was found”; with Amoeba (setting [1]), “no Amoeba”; in the data set on Amoeba (Example 5, Chlorococcum sp. culture, CO2 saturated, pH about 5.6-5.7, one hour), “most Amoeba turned into spherical, were inactivated and could not change shape or move”. The “Amoeba, result of microscope examination” value in the data set with Amoeba (Example 5, saturated CO2, twenty-seven hours later) was “almost no intact Amoeba were observed”; in the data set on Amoeba (setting [2]), “no Amoeba”; in the data set on Amoeba (Example 9, Nannochloris sp. culture, CO2 aerated periodically at an interval of 2 hours (pH 5.0-8.5), two days), “no Amoeba was observed; also recorded: essentially in control”; in the data set with Amoeba (Example 10, Spirulina maxima culture, after 1M NaOH pH 11.5-12.0 1 h, CO2 to saturation (about pH 5.8) 23 hour), “no Amoeba”; in the data set with Amoeba (setting [3]) it was “no Amoeba”; with Amoeba (setting [4]), “no Amoeba”. Further, the “Amoeba, result of microscope examination” value in the data set on Amoeba (Example 15, Spirulina maxima culture, after 1M ammonia pH 10.0 1 h, CO2 to saturation (about pH 5.8) 23 hour) is recorded as “no Amoeba”. Also, the “time until algae resumed to grow after air aeration” value in the data set on Spirulina maxima is recorded as “Twenty-four”. Further, the “ciliates, result of microscope examination” value with ciliate (setting [1]) was “a few inactive and immotile ciliates”; with ciliate (setting [2]), “a few inactive and immotile ciliates”; in the data set on ciliate (Example 10, after 1M NaOH pH 11.5-12.0 1 h, CO2 to saturation (about pH 5.8) 23 hour) it was “a few inactive and immotile ciliates”; in the data set on ciliate (setting [3]), “a few inactive and immotile ciliates”; in the data set on ciliate (setting [4]), “a few inactive and immotile ciliates”; with ciliate (Example 15, after 1M ammonia pH 10.0 1 h, CO2 to saturation (about pH 5.8) 23 hour), “a few inactive and immotile ciliates”. Moreover, in the data set on Nannochloris sp., the “growth rate of the algae” value was “rarely affected; also recorded: not affected”.
